Patent US20220305012A1, “L[…] TREATING SLEEP ISSUES” (EISAI R&D MANAGEMENT CO., LTD., priority 2019, published 2022)

Assays:
Assay type in all cases: in vivo, human
[1] = test system: Subjects Having Insomnia Disorder; test: Example 2: subjective wake after sleep onset (sWASO), sleep diary
Source text: As used herein, the term “subjective wake after sleep onset”, abbreviated as “sWASO”, means the sum of estimated minutes of wake during the night after initial sleep onset until the time the subject stopped trying to sleep for the night, operationalized as the time the subject got out of bed for the day. In some embodiments, sWASO is derived from data entered in a subject's Sleep Diary. As used herein, an “improvement of sWASO” means a reduction in sWASO.
(§1) In some embodiments, sleep diaries were used to assess sleep parameters reported by subjects (i.e., subjective assessments) including subjective sleep onset latency (sSOL), subjective sleep efficiency (sSE), subjective WASO (sWASO), and subjective total sleep time (sTST). Subjects were instructed to complete the Sleep Diary developed based on the consensus Sleep Diary as described in Carney et al., “The consensus sleep diary: standardizing prospective sleep self-monitoring,” Sleep 2012; 35(2):287-302. In some embodiments, the Sleep Diary was used to assess the subject's global perception of quality of sleep on the previous night with the following question: “How would you rate the quality of your sleep last night?” Subjects rated the quality of their sleep on a scale from 1 to 9, with 1 being extremely poor and 9 being extremely good. In some embodiments, the Sleep Diary was used to assess subjective ratings of morning sleepiness with the following question: “How alert/sleepy do you feel this morning?” Subjects rated their sleepiness/alertness level on a Likert scale from 1 to 9, with 1 being extremely sleepy and 9 being extremely alert.
sWASO—subjective wake after sleep onset: sum of estimated minutes of wake during the night after initial sleep onset until the time the subject stopped trying to sleep for the night, operationalized as the time the subject got out of bed for the day.
(§2) The treatment period lasted for 31 days. Subjects were randomized in a double-blind manner and received placebo, a tablet containing 5 mg of lemborexant, a tablet containing 10 mg of lemborexant, or a tablet containing 6.25 mg of zolpidem ER.
(§3) Once home, the subject ingested study drug each night prior to bedtime and completed their sleep diary within 1 hour of waketime.

[2] = test system: Subjects Having Insomnia Disorder; test: Example 2: subjective sleep onset latency (sSOL), sleep diary
Source text: As used herein, the term “subjective sleep onset latency”, abbreviated as “sSOL”, means the estimated number of minutes from the time that the subject attempted to sleep until sleep onset. In some embodiments, sSOL is derived from data entered in a subject's Sleep Diary.
as §1
sSOL—subjective sleep onset latency: estimated minutes from the time that the subject attempted to sleep until sleep onset.
as §2, §3

[3] = test system: Subjects Having Insomnia Disorder; test: Example 2: treatment-emergent adverse events
Experimental: Between 14 and 18 days after completion of the treatment period, subjects returned to the clinic for the end of study visit. The T-BWSQ and eC-SSRS were administered and routine safety assessments were conducted.
A subject who prematurely discontinued taking study drug was to return to the clinic as soon as practicable after discontinuing study drug. If the subject discontinued due to an adverse event, the adverse event must have been followed to resolution or for 2 weeks, whichever came first. Additionally, subjects who discontinued early underwent a urine drug test.

[4] = First 7 Nights of Treatment, Lemborexant 5 mg
[5] = First 7 Nights of Treatment, Lemborexant 10 mg
[6] = Last 7 Nights of Treatment, Lemborexant 5 mg
[7] = Last 7 Nights of Treatment, Lemborexant 10 mg
[8] = 5 mg, First 7 Nights of Treatment
[9] = 5 mg, Last 7 Nights of Treatment
[10] = 10 mg, First 7 Nights of Treatment
[11] = 10 mg, Last 7 Nights of Treatment

With `Cc1ncc(OC[C@@]2(c3cccc(F)c3)C[C@H]2C(=O)Nc2ccc(F)cn2)c(C)n1` [Lemborexant, (1R,2S)-2-(((2,4-dimethylpyrimidin-5-yl)oxy)methyl)-2-(3-fluorophenyl)-N-(5-fluoropyridin-2-yl)cyclopropanecarboxamide] the “mean subjective wake after sleep onset” value ([1]; 10 mg, relative to baseline, placebo and zolpidem treatment groups (Table 20)) was “reduced”, the “Subjective Wake After Sleep Onset, Change from Study Baseline, Mean (SD)” value (“Subjective Wake After Sleep Onset, Change … (SD)” for short) [1, 4] was −39.33 (55.022) and the “Subjective Wake After Sleep Onset, Mean (SD)” value [1, 4] was 127.37 (78.303). The “Subjective Wake After Sleep Onset, Model-adjusted change from baseline” value [1, 4] was −39.97, the “Subjective Wake After Sleep Onset, Change … (SD)” value [1, 5] was −55.06 (66.696) and the “Subjective Wake After Sleep Onset, Mean (SD)” value [1, 5] was 119.78 (74.825). The “Subjective Wake After Sleep Onset, Model-adjusted change from baseline” value [1, 5] was −53.90, the “Subjective Wake After Sleep Onset, Change … (SD)” value [1, 6] was −44.51 (58.090) and the “Subjective Wake After Sleep Onset, Mean (SD)” value [1, 6] was 119.30 (81.645). For the same compound, the “Subjective Wake After Sleep Onset, Model-adjusted change from baseline” value [1, 6] was −47.55, the “Subjective Wake After Sleep Onset, Change … (SD)” value [1, 7] was −57.96 (72.791) and the “Subjective Wake After Sleep Onset, Mean (SD)” value [1, 7] was 117.08 (83.753). The “Subjective Wake After Sleep Onset, Model-adjusted change from baseline” value [1, 7] was −56.64, the “sSOL Change from Study Baseline, Mean (SD)” value (“sSOL Change … (SD)” below) [2, 8] was −22.54 (32.812) minutes and the “sSOL Change from Study Baseline, Median” value [2, 8] was -14.86 min. For the same compound, the “sSOL, Mean (SD)” value [2, 8] was 42.39 (28.075) minutes, the “sSOL, Median” value [2, 8] was 29.64 min and the “sSOL Change … (SD)” value [2, 9] was −25.20 (34.854) minutes. The “sSOL Change from Study Baseline, Median” value [2, 9] was -18.54 min, the “sSOL, Mean (SD)” value [2, 9] was 38.80 (28.028) minutes and the “sSOL, Median” value [2, 9] was 30.36 min. The “sSOL, Mean (SD)” value ([2]; 5 mg, Study Baseline) was 65.79 (43.530) minutes, the “sSOL, Median” value ([2]; 5 mg, Study Baseline) was 58.57 min and the “sSOL Change … (SD)” value [2, 10] was −21.88 (29.269) minutes. The “sSOL Change from Study Baseline, Median” value [2, 10] was -15.00 min, the “sSOL, Mean (SD)” value [2, 10] was 38.64 (32.092) minutes and the “sSOL Change … (SD)” value [2, 11] was −24.79 (34.068) minutes. The “sSOL Change from Study Baseline, Median” value [2, 11] was -17.14 min, the “sSOL, Mean (SD)” value [2, 11] was 36.51 (31.059) minutes and the “sSOL, Median” value [2, 11] was 27.50 min. For the same compound, the “sSOL, Mean (SD)” value ([2]; 10 mg, Study Baseline) was 60.88 (42.514) minutes, the “sSOL, Median” value ([2]; 10 mg, Study Baseline) was 53.57 min and the “mean subjective sleep onset latency” value ([2]; all lemborexant treatment groups, relative to baseline, placebo and zolpidem treatment groups (Table 18)) was “reduced”. The “safety and tolerability (incidence of adverse events)” value ([3]; Example 2 (Table 29)) was “safe and well-tolerated”, the Congenital anomaly/birth defect ([3]; Lemborexant 5 mg (N = 266)) was 0 n (%) and the Deaths ([3]; Lemborexant 5 mg (N = 266)) was 0 n (%). The Important medical events ([3]; Lemborexant 5 mg (N = 266)) was 1 (0.3) n (%), the Life threatening ([3]; Lemborexant 5 mg (N = 266)) was 0 n (%) and the “Other SAEs” value ([3]; Lemborexant 5 mg (N = 266)) was 2 (0.8) n (%). The “Persistent or significant disability or incapacity” value ([3]; Lemborexant 5 mg (N = 266)) was 0 n (%), the “Requires inpatient hospitalization or prolongation of existing hospitalization” value ([3]; Lemborexant 5 mg (N = 266)) was 2 (0.8) n (%) and the “Serious TEAEs” value ([3]; Lemborexant 5 mg (N = 266)) was 2 (0.8) n (%). The “Severe TEAEs” value ([3]; Lemborexant 5 mg (N = 266)) was 1 (0.4) n (%), the TEAEs ([3]; Lemborexant 5 mg (N = 266)) was 74 (27.8) n (%) and the “TEAEs leading to study dose reduced” value ([3]; Lemborexant 5 mg (N = 266)) was 0 n (%). The “TEAEs leading to study drug dose adjustment” value ([3]; Lemborexant 5 mg (N = 266)) was 3 (1.1) n (%), the “TEAEs leading to study drug interrupted” value ([3]; Lemborexant 5 mg (N = 266)) was 1 (0.4) n (%) and the “TEAEs leading to study drug withdrawal” value ([3]; Lemborexant 5 mg (N = 266)) was 2 (0.8) n (%). For the same compound, the “Treatment-related TEAEs” value ([3]; Lemborexant 5 mg (N = 266)) was 30 (11.3) n (%), the Congenital anomaly/birth defect ([3]; Lemborexant 10 mg (N = 268)) was 0 n (%) and the Deaths ([3]; Lemborexant 10 mg (N = 268)) was 0 n (%). The Important medical events ([3]; Lemborexant 10 mg (N = 268)) was 0 n (%), the Life threatening ([3]; Lemborexant 10 mg (N = 268)) was 0 n (%) and the “Other SAEs” value ([3]; Lemborexant 10 mg (N = 268)) was 0 n (%). The “Persistent or significant disability or incapacity” value ([3]; Lemborexant 10 mg (N = 268)) was 0 n (%), the “Requires inpatient hospitalization or prolongation of existing hospitalization” value ([3]; Lemborexant 10 mg (N = 268)) was 0 n (%) and the “Serious TEAEs” value ([3]; Lemborexant 10 mg (N = 268)) was 0 n (%). For the same compound, the “Severe TEAEs” value ([3]; Lemborexant 10 mg (N = 268)) was 2 (0.7) n (%), the TEAEs ([3]; Lemborexant 10 mg (N = 268)) was 82 (30.6) n (%) and the “TEAEs leading to study dose reduced” value ([3]; Lemborexant 10 mg (N = 268)) was 0 n (%). For the same compound, the “TEAEs leading to study drug dose adjustment” value ([3]; Lemborexant 10 mg (N = 268)) was 3 (1.1) n (%), the “TEAEs leading to study drug interrupted” value ([3]; Lemborexant 10 mg (N = 268)) was 0 n (%) and the “TEAEs leading to study drug withdrawal” value ([3]; Lemborexant 10 mg (N = 268)) was 3 (1.1) n (%). The “Treatment-related TEAEs” value ([3]; Lemborexant 10 mg (N = 268)) was 39 (14.6) n (%).
